What all share (assay): relative viability (nuclei count vs DMSO), 5 days (fraction); higher = more cells survive
Compound in experiment [1]: CCN1C(=O)C2=CC(=C(N=C2N(C1=O)C3CC3)N)C(=O)N + Nc1nc2[nH]cc(CCc3ccc(C(=O)N[C@@H](CCC(=O)O)C(=O)O)cc3)c2c(=O)[nH]1 [Pemetrexed] (partner 0.2 µM)
In a few lines: (§1)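 Values are medians from duplicate plates. Each reflects relative viability, defined as the nuclei count of treated wells over that of vehicle wells. Lung cancer cell lines in 1536-well plates were pin-tool dosed one day after seeding with one drug alone or with a fixed anchor-drug dose plus five library-drug doses (not always all listed) in √10 steps, then fixed, stained and imaged at 4× after 5 days.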

Compound in experiment [2]: CCN1C(=O)C2=CC(=C(N=C2N(C1=O)C3CC3)N)C(=O)N + CC(=O)c1c(C)c2cnc(Nc3ccc(N4CCNCC4)cn3)nc2n(C2CCCC2)c1=O [Palbociclib] (partner 0.5 µM)
A digest of the protocol: as §1

Compound in experiment [3]: CCN1C(=O)C2=CC(=C(N=C2N(C1=O)C3CC3)N)C(=O)N + COc1cccc2cc(-c3nc([C@H]4CC[C@H](C(=O)O)CC4)n4ncnc(N)c34)[nH]c12 [OSI-027] (partner 0.5 µM)
In a few lines:
as §1

Compound in experiment [4]: CCN1C(=O)C2=CC(=C(N=C2N(C1=O)C3CC3)N)C(=O)N + CC(C)C[C@H](NC(=O)[C@H](Cc1ccccc1)NC(=O)c1cnccn1)B(O)O [Bortezomib] (partner 0.002 µM)
In a few lines:
as §1

Compound in experiment [5]: CCN1C(=O)C2=CC(=C(N=C2N(C1=O)C3CC3)N)C(=O)N + Cc1cc(Nc2cc(N3CCN(C)CC3)nc(Sc3ccc(NC(=O)C4CC4)cc3)n2)n[nH]1 [Tozasertib] (partner 0.1 µM)
A digest of the protocol: as §1

Turning to NCI-H1437, the relative viability was determined as 0.294 in experiment [1] (first compound 0.253 µM); 0.316 in experiment [1] (first compound 0.8 µM); 0.287 in experiment [1] (first compound 2.53 µM); 0.304 in experiment [1] (first compound 8 µM); 0.337 in experiment [2] (first compound 0.253 µM); 0.323 in experiment [2] (first compound 0.8 µM). For the same cell line, the relative viability in experiment [2] (first compound 2.53 µM) is 0.315; in experiment [2] (first compound 8 µM), 0.245; in experiment [3] (first compound 0.253 µM) it was 0.939; in experiment [3] (first compound 0.8 µM), 0.867; in experiment [3] (first compound 2.53 µM) it was 0.919; in experiment [3] (first compound 8 µM), 0.894. Moreover, the relative viability was 0.489 in experiment [4] (first compound 0.253 µM); 0.543 in experiment [4] (first compound 0.8 µM); 0.515 in experiment [4] (first compound 2.53 µM); 0.618 in experiment [4] (first compound 8 µM); 0.378 in experiment [5] (first compound 0.253 µM); 0.42 in experiment [5] (first compound 0.8 µM). Moreover, the relative viability worked out at 0.374 in experiment [5] (first compound 2.53 µM) and 0.411 in experiment [5] (first compound 8 µM).

SW 1573: the relative viability in experiment [1] (first compound 0.253 µM) came out at 0.855; in experiment [1] (first compound 0.8 µM), 0.884; in experiment [1] (first compound 2.53 µM), 0.844; in experiment [1] (first compound 8 µM), 0.791; in experiment [2] (first compound 0.253 µM) it was 0.39; in experiment [2] (first compound 0.8 µM) it was 0.384. Further, the relative viability amounted to 0.399 in experiment [2] (first compound 2.53 µM); 0.451 in experiment [2] (first compound 8 µM); 0.534 in experiment [3] (first compound 0.253 µM); 0.612 in experiment [3] (first compound 0.8 µM); 0.675 in experiment [3] (first compound 2.53 µM); 0.587 in experiment [3] (first compound 8 µM). For the same cell line, the relative viability amounted to 0.994 in experiment [4] (first compound 0.253 µM); 1.14 in experiment [4] (first compound 0.8 µM); 0.935 in experiment [4] (first compound 2.53 µM); 1.04 in experiment [4] (first compound 8 µM); 0.172 in experiment [5] (first compound 0.253 µM); 0.174 in experiment [5] (first compound 0.8 µM). Also, the relative viability in experiment [5] (first compound 2.53 µM) is 0.142; in experiment [5] (first compound 8 µM) it was 0.219.

HCC-44: the relative viability was determined as 0.588 in experiment [1] (first compound 0.253 µM); 0.641 in experiment [1] (first compound 0.8 µM); 0.613 in experiment [1] (first compound 2.53 µM); 0.668 in experiment [1] (first compound 8 µM); 0.998 in experiment [2] (first compound 0.253 µM); 0.912 in experiment [2] (first compound 0.8 µM). The relative viability in experiment [2] (first compound 2.53 µM) was determined as 0.972; in experiment [2] (first compound 8 µM), 1; in experiment [3] (first compound 0.253 µM), 0.568; in experiment [3] (first compound 0.8 µM), 0.446; in experiment [3] (first compound 2.53 µM), 0.527; in experiment [3] (first compound 8 µM), 0.421. In addition, the relative viability in experiment [4] (first compound 0.253 µM) is 0.896; in experiment [4] (first compound 0.8 µM), 0.895; in experiment [4] (first compound 2.53 µM), 0.879; in experiment [4] (first compound 8 µM) it was 0.877; in experiment [5] (first compound 0.253 µM), 0.634; in experiment [5] (first compound 0.8 µM) it was 0.965. In addition, the figures for the relative viability in experiment [5] (first compound 2.53 µM) and in experiment [5] (first compound 8 µM) were 0.789 and 0.875, respectively.

With EPLC-272H, the relative viability was found to be 0.265 in experiment [1] (first compound 0.8 µM); 0.301 in experiment [1] (first compound 2.53 µM); 0.368 in experiment [1] (first compound 8 µM); 0.309 in experiment [2] (first compound 0.253 µM); 0.358 in experiment [2] (first compound 0.8 µM); 0.331 in experiment [2] (first compound 2.53 µM). Also, the relative viability came to 0.358 in experiment [2] (first compound 8 µM); 0.277 in experiment [3] (first compound 0.253 µM); 0.258 in experiment [3] (first compound 0.8 µM); 0.266 in experiment [3] (first compound 2.53 µM); 0.277 in experiment [3] (first compound 8 µM); 0.828 in experiment [4] (first compound 0.253 µM). Also, the relative viability stood at 0.75 in experiment [4] (first compound 0.8 µM); 0.827 in experiment [4] (first compound 2.53 µM); 1 in experiment [4] (first compound 8 µM); 0.289 in experiment [5] (first compound 0.253 µM); 0.227 in experiment [5] (first compound 0.8 µM); 0.229 in experiment [5] (first compound 2.53 µM). Also, the relative viability in experiment [5] (first compound 8 µM) stood at 0.224.

Consider NCI-H647, for which the relative viability in experiment [1] (first compound 0.253 µM) stood at 0.174; in experiment [1] (first compound 0.8 µM) it was 0.205; in experiment [1] (first compound 2.53 µM), 0.157; in experiment [1] (first compound 8 µM) it was 0.185; in experiment [2] (first compound 0.253 µM), 0.434; in experiment [2] (first compound 0.8 µM) it was 0.356. Besides, the relative viability was 0.328 in experiment [2] (first compound 2.53 µM); 0.355 in experiment [2] (first compound 8 µM); 0.598 in experiment [3] (first compound 0.253 µM); 0.724 in experiment [3] (first compound 0.8 µM); 0.647 in experiment [3] (first compound 2.53 µM); 0.591 in experiment [3] (first compound 8 µM). For the same cell line, the relative viability in experiment [4] (first compound 0.253 µM) was found to be 0.92; in experiment [4] (first compound 0.8 µM) it was 1.05; in experiment [4] (first compound 2.53 µM), 0.951; in experiment [4] (first compound 8 µM) it was 0.784; in experiment [5] (first compound 0.253 µM) it was 0.33; in experiment [5] (first compound 0.8 µM) it was 0.304. The relative viability came to 0.273 in experiment [5] (first compound 2.53 µM) and 0.277 in experiment [5] (first compound 8 µM).

With NCI-H322M, the relative viability in experiment [1] (first compound 0.253 µM) is 0.632; in experiment [1] (first compound 0.8 µM), 0.541; in experiment [1] (first compound 2.53 µM), 0.634; in experiment [1] (first compound 8 µM), 0.6; in experiment [2] (first compound 0.253 µM) it was 0.478; in experiment [2] (first compound 0.8 µM) it was 0.455. The relative viability in experiment [2] (first compound 2.53 µM) came to 0.482; in experiment [2] (first compound 8 µM), 0.502; in experiment [3] (first compound 0.253 µM) it was 0.498; in experiment [3] (first compound 0.8 µM) it was 0.498; in experiment [3] (first compound 2.53 µM), 0.512; in experiment [3] (first compound 8 µM), 0.549. In addition, the relative viability in experiment [4] (first compound 0.253 µM) stood at 1.25; in experiment [4] (first compound 0.8 µM) it was 0.701; in experiment [4] (first compound 2.53 µM) it was 1.25; in experiment [4] (first compound 8 µM), 1.14; in experiment [5] (first compound 0.253 µM), 0.526; in experiment [5] (first compound 0.8 µM), 0.475. The results for the relative viability in experiment [5] (first compound 2.53 µM) and in experiment [5] (first compound 8 µM) were 0.493 and 0.511, respectively.

These data come from the supplement of paper PMC10307832.
